In the NIST ThermoML archive (doi:10.1021/je060179e):

Assay: xn = mol fraction of the nth substance listed
Conditions: for mass density: 101 kPa, Liquid

CCCCCCCCO [octan-1-ol] + CCCCCCC
Conditions	mass density [kg/m3]	surface tension liquid-gas [mN/m]
288.15 K, x2 = 0.0514	822.18	–
288.15 K, x2 = 0.0516	–	26.75
288.15 K, x2 = 0.0995	–	26.18
288.15 K, x2 = 0.1001	816.02	–
288.15 K, x2 = 0.1845	–	25.05
288.15 K, x2 = 0.2015	802.93	–
288.15 K, x2 = 0.3082	788.6	–
288.15 K, x2 = 0.3346	–	23.74
288.15 K, x2 = 0.4054	775.17	–
288.15 K, x2 = 0.4142	–	23.12
288.15 K, x2 = 0.5034	–	22.6
288.15 K, x2 = 0.517	759.5	–
288.15 K, x2 = 0.6074	–	22.16
288.15 K, x2 = 0.6305	743.28	–
288.15 K, x2 = 0.6639	–	21.9
288.15 K, x2 = 0.7114	731.48	–
288.15 K, x2 = 0.8136	716.21	–
288.15 K, x2 = 0.8325	–	21.24
288.15 K, x2 = 0.9061	702.2	–
288.15 K, x2 = 0.9105	–	20.94
288.15 K, x2 = 0.9518	695.28	–
288.15 K, x2 = 0.9561	–	20.87
293.15 K, x2 = 0.0514	818.71	–
293.15 K, x2 = 0.0564	–	26.14
293.15 K, x2 = 0.1001	812.51	–
293.15 K, x2 = 0.1057	–	25.54
293.15 K, x2 = 0.2015	799.33	–
293.15 K, x2 = 0.2084	–	24.34
293.15 K, x2 = 0.3082	784.92	–
293.15 K, x2 = 0.3112	–	23.38
293.15 K, x2 = 0.4054	771.41	–
293.15 K, x2 = 0.4066	–	22.59
293.15 K, x2 = 0.5114	–	21.96
293.15 K, x2 = 0.517	755.65	–
293.15 K, x2 = 0.6092	–	21.52
293.15 K, x2 = 0.6305	739.34	–
293.15 K, x2 = 0.7114	727.47	–
293.15 K, x2 = 0.7164	–	20.99
293.15 K, x2 = 0.8124	–	20.62
293.15 K, x2 = 0.8136	712.11	–
293.15 K, x2 = 0.8965	–	20.48
293.15 K, x2 = 0.9061	698.04	–
293.15 K, x2 = 0.9518	691.08	–
293.15 K, x2 = 0.9573	–	20.26
298.15 K, x2 = 0.0514	815.21	–
298.15 K, x2 = 0.0541	–	25.64
298.15 K, x2 = 0.1001	808.98	–
298.15 K, x2 = 0.1083	–	25.03
298.15 K, x2 = 0.2004	–	23.91
298.15 K, x2 = 0.2015	795.72	–
298.15 K, x2 = 0.3082	781.22	–
298.15 K, x2 = 0.3137	–	22.82
298.15 K, x2 = 0.405	–	22.09
298.15 K, x2 = 0.4054	767.63	–
298.15 K, x2 = 0.5089	–	21.44
298.15 K, x2 = 0.517	751.77	–
298.15 K, x2 = 0.6085	–	20.94
298.15 K, x2 = 0.6305	735.37	–
298.15 K, x2 = 0.7107	–	20.46
298.15 K, x2 = 0.7114	723.44	–
298.15 K, x2 = 0.8072	–	20.15
298.15 K, x2 = 0.8136	707.99	–
298.15 K, x2 = 0.9061	693.84	–
298.15 K, x2 = 0.9071	–	19.82
298.15 K, x2 = 0.9518	686.85	–
298.15 K, x2 = 0.9536	–	19.64
303.15 K, x2 = 0.0504	–	25.18
303.15 K, x2 = 0.0514	811.7	–
303.15 K, x2 = 0.1001	805.43	–
303.15 K, x2 = 0.1033	–	24.57
303.15 K, x2 = 0.2015	792.09	–
303.15 K, x2 = 0.2052	–	23.46
303.15 K, x2 = 0.3082	777.49	–
303.15 K, x2 = 0.3108	–	22.37
303.15 K, x2 = 0.4054	763.85	–
303.15 K, x2 = 0.4134	–	21.56
303.15 K, x2 = 0.5153	–	20.94
303.15 K, x2 = 0.517	747.87	–
303.15 K, x2 = 0.6005	–	20.46
303.15 K, x2 = 0.6305	731.38	–
303.15 K, x2 = 0.7067	–	19.98
303.15 K, x2 = 0.7114	719.37	–
303.15 K, x2 = 0.8043	–	19.58
303.15 K, x2 = 0.8136	703.84	–
303.15 K, x2 = 0.9047	–	19.22
303.15 K, x2 = 0.9061	689.61	–
303.15 K, x2 = 0.9486	–	19.14
303.15 K, x2 = 0.9518	682.59	–
308.15 K, x2 = 0.0514	808.16	–
308.15 K, x2 = 0.0562	–	24.54
308.15 K, x2 = 0.1001	801.85	–
308.15 K, x2 = 0.1017	–	24.05
308.15 K, x2 = 0.2015	788.43	–
308.15 K, x2 = 0.2078	–	22.86
308.15 K, x2 = 0.3065	–	21.92
308.15 K, x2 = 0.3082	773.75	–
308.15 K, x2 = 0.4054	760.1	–
308.15 K, x2 = 0.4117	–	21.11
308.15 K, x2 = 0.5064	–	20.53
308.15 K, x2 = 0.517	743.94	–
308.15 K, x2 = 0.6065	–	20
308.15 K, x2 = 0.6305	727.36	–
308.15 K, x2 = 0.7081	–	19.61
308.15 K, x2 = 0.7114	715.28	–
308.15 K, x2 = 0.8	–	19.27
308.15 K, x2 = 0.8136	699.65	–
308.15 K, x2 = 0.9028	–	18.88
308.15 K, x2 = 0.9061	685.35	–
308.15 K, x2 = 0.9483	–	18.82
308.15 K, x2 = 0.9518	678.3	–
